What was measured:
mouse [1] = details: Subchronic oral toxicity in rodents, cd1, Feed, dose end: 90 day, group: systemic, systemic / in life observation / body weight / body weight gain + systemic / in life observation / food consumption / food consumption + …
dog [2] = details: Subchronic oral toxicity in nonrodent, beagle, Gavage/Intubation, dose end: 90 day, group: systemic, systemic / in life observation / clinical signs / defecation (diarrhea) + systemic / in life observation / clinical signs / motor activity…
mouse [3] = details: Carcinogenicity, cd1, Oral, Feed, dose end: 80 week, group: systemic
rat [4] = details: Subchronic oral toxicity in rodents, sprague dawley, Feed, dose end: 90 day, group: systemic
dog [5] = details: Chronic toxicity, beagle, Oral, Gavage/Intubation, dose end: 12 month, group: systemic
rat [6] = details: Prenatal developmental toxicity study, sprague dawley, Oral, Gavage/Intubation, dose end: 15 GD
rat [7] = details: Combined chronic toxicity/carcinogenicity, sprague dawley, Oral, Feed, dose end: 104 week, group: systemic
rat [8] = details: Multigenerational reproductive toxicity study, sprague dawley, Oral, Feed, dose end: 2 generation
rabbit = details: Prenatal developmental toxicity study, new zealand white, Oral, Gavage/Intubation, dose end: 19 GD
[9] = systemic / pathology gross / urinary bladder / distended
[10] = systemic / pathology gross / urinary bladder / distended + systemic / hematology / lymphocyte / lymphocyte + systemic / hematology / …
[11] = systemic / in life observation / body weight / body weight + systemic / in life observation / body weight / body weight gain + systemic / in…
[12] = systemic / in life observation / body weight / body weight gain + systemic / organ weight / liver / relative to body weight
[13] = systemic / hematology / blood clotting / blood clotting - thromboplastin time + systemic / in life observation / body weight / body weight …
[14] = group: developmental, systemic / in life observation / body weight / fetal weight + systemic / in life observation / body weight / litter weight
[15] = group: maternal, systemic / in life observation / body weight / body weight + systemic / in life observation / body weight / body weight gain + systemic / in…
[16] = systemic / pathology microscopic / thyroid gland / adenoma + systemic / clinical chemistry / cholesterol / cholesterol + systemic / clinical…
[17] = group: offspring, systemic / in life observation / body weight / offspring (pup) weight + systemic / in life observation / body weight / offspring (pup) …
[18] = group: parental, systemic / in life observation / body weight / body weight
[19] = group: developmental, developmental / developmental malformation / bone / full supernumerary + developmental / developmental malformation / bone / incomplete …

Compound Cc1cc(C)nc(Nc2ccccc2)n1 [Pyrimethanil] has an LEL (mouse [1]) of 1860 mg/kg/day, an LOAEL (mouse [1]) of 1860 mg/kg/day and an NEL (mouse [1]) of 139 mg/kg/day. The NOAEL (mouse [1]) was 139 mg/kg/day, the LEL (dog [2]) was 800 mg/kg/day and the LOAEL (dog [2]) was 800 mg/kg/day. The NEL (dog [2]) was 80 mg/kg/day, the NOAEL (dog [2]) was 80 mg/kg/day and the LEL (mouse [3]; [9]) was 2 mg/kg/day. It also gave an NEL (mouse [3]; [9]) of less than 2 mg/kg/day, an LOAEL (mouse [3]; [10]) greater than 211 mg/kg/day and an NOAEL (mouse [3]; [10]) of no less than 211 mg/kg/day. The LOAEL (rat [4]; [11]) was 529 mg/kg/day, the NOAEL (rat [4]; [11]) was 54.5 mg/kg/day and the LEL (rat [4]; [12]) was 6.8 mg/kg/day. It also gave an NEL (rat [4]; [12]) of less than 6.8 mg/kg/day, an NEL (dog [5]; systemic / hematology / blood clotting / blood clotting - thromboplastin time + systemic / hematology / neutrophils / neutrophils + systemic…) of 2 mg/kg/day and an LOAEL (dog [5]; [13]) of 250 mg/kg/day. For the same compound, the NOAEL (dog [5]; [13]) was 30 mg/kg/day, the LEL (dog [5]; systemic / in life observation / clinical signs / vomitting) was 30 mg/kg/day and the LEL (rat [6]; [14]) was 1000 mg/kg/day. For the same compound, the LOAEL (rat [6]; [14]) was 1000 mg/kg/day, the NEL (rat [6]; [14]) was 85 mg/kg/day and the NOAEL (rat [6]; [14]) was 85 mg/kg/day. It also gave an LOAEL (rat [6]; group: maternal, systemic / in life observation / body weight / body weight + systemic / in life observation / body weight / body weight gain) of 1000 mg/kg/day, an LEL (rat [6]; [15]) of 1000 mg/kg/day and an NEL (rat [6]; [15]) of 85 mg/kg/day. For the same compound, the NOAEL (rat [6]; [15]) was 85 mg/kg/day, the LEL (rat [7]; systemic / clinical chemistry / gamma glutamyl transferase (ggt) / gamma glutamyl transferase (ggt) + systemic / organ weight / liver / …) was 17 mg/kg/day and the LOAEL (rat [7]; [16]) was 221 mg/kg/day. It also gave an NEL (rat [7]; [16]) of 1.3 mg/kg/day, an NOAEL (rat [7]; [16]) of 17 mg/kg/day and an LOAEL (rat [8]; group: offspring, systemic / in life observation / body weight / offspring (pup) weight) of 294 mg/kg/day. For the same compound, the LEL (rat [8]; [17]) was 294 mg/kg/day, the NEL (rat [8]; [17]) was 23.1 mg/kg/day and the NOAEL (rat [8]; [17]) was 23.1 mg/kg/day. The LEL (rat [8]; [18]) was 1.9 mg/kg/day, the NEL (rat [8]; [18]) was less than 1.9 mg/kg/day and the LOAEL (rat [8]; group: parental, systemic / in life observation / body weight / body weight + systemic / in life observation / body weight / body weight gain) was 294 mg/kg/day. For the same compound, the NOAEL (rat [8]; group: parental, systemic / in life observation / body weight / body weight + systemic / in life observation / body weight / body weight gain + systemic / in…) was 23.1 mg/kg/day, the LEL (rabbit; [19]) was 300 mg/kg/day and the LOAEL (rabbit; [19]) was 300 mg/kg/day. For the same compound, the NEL (rabbit; [19]) was 45 mg/kg/day, the NOAEL (rabbit; [19]) was 45 mg/kg/day and the LOAEL (rabbit; [15]) was 300 mg/kg/day. For the same compound, the NEL (rabbit; [15]) was 7 mg/kg/day, the NOAEL (rabbit; [15]) was 45 mg/kg/day and the LEL (rabbit; group: maternal, systemic / in life observation / clinical signs / defecation) was 45 mg/kg/day.

Source: EPA's ToxRefDB 2
